This note sets out measurements from article PMC11940238, “Ru(II) Complexes with 3,4-Dimethylphenylhydrazine: Exploring In Vitro Anticancer Activity and Protein Affinities” (Biomolecules, 2025).

pIC50: −log10 of the molar value.

For one data set, the system named is MMP9. Description: Gelatin gel electrophoresis of supernatants, MMP9 activity, MDA-MB-231. Type of data set: cell-based, human. Here is the method: (§1) MDA-MB-231 and MIA PaCa-2 cells were treated with 50 µM of complex 2 or 75 µM and 100 µM of complex 1, respectively. The treatments lasted 24 and 48 h. Untreated cells were used as control. The supernatants were collected for further analysis. Electrophoresis in a polyacrylamide gel with an add-on of 0.1% SDS and 0.2% gelatin was used to measure metalloproteinase 2 and 9 activity (MMP2 and MMP9).
(§2) The gels were imaged with a ChemiDoc Imaging System (Bio-Rad Laboratories, Hercules, CA, USA) and estimated by densitometric scanning using the Image Lab (Bio-Rad Laboratories, Inc. Version 6.0.0.25) software tool.

Data set [1] can be described thus: Stability in PBS followed by UV-VIS spectroscopy. In kind it is physicochemical. Conditions: 1 × 10^−4 M in PBS, 0-24 h. The source says: Ligand precursor 3,4-dimethylphenylhydrazine hydrochloride (BLDPharm), [{RuCl2(η^6-p-cymene)}2] (Carbolutions), LiOH × H2O (Sigma Aldrich, Darmstadt, Germany), methanol (Carl Roth), diethyl ether (Carl Roth) and 2-propanol (Carl Roth) were obtained commercially and used without further purification. Deuterated solvents, CDCl3 and MeOD, were procured from Deuterosolvents GmbH and used for NMR spectroscopy. NMR spectra of the synthesized complexes, including ^1H (400.23 MHz) and ^13C NMR (100.1 MHz), were recorded using a Bruker Avance™ 400 MHz Spectrometer. Elemental analysis was performed and the Institute of Chemistry, Chemnitz University of Technology (Heraeus VARIO EL oven). The stability of compounds was examined by UV-VIS spectroscopy on a Thermo Scientific UV-VIS Spectrometer (Thermo Fisher Scientific, Waltham, MA, USA) between 800 and 200 nm. For this experiment, 1 × 10^−2 M solutions of complexes in DMSO were prepared and further diluted to 1 × 10^−4 M solutions in PBS. The measurements were repeated for 24 h.

The subject of data set [2] is MDA-MB-231 cells. The experiment in a line: Malondialdehyde and protein carbonyl concentrations in the medium. Type of data set: cell-based, human. Conditions: MDA-MB-231, 24 h, 75 µM complex 1 or 50 µM complex 2, vs untreated cells. Here is the method:
(§3) MDA-MB-231 and MIA PaCa-2 cells were treated with 50 µM of complex 2 or 75 µM and 100 µM of complex 1, respectively, for 24 h. Untreated cells were used as control. The supernatants were collected and used for further analyses. Lipid peroxidation was estimated by a spectrophotometric assay based on the absorption maximum of the malondialdehyde (MDA) complex with thiobarbituric acid in an acidic environment and high temperature. 1,1,3,3-Tetramethoxypropane was used as standard. Absorbance was read on the ELISA reader using a 540 nm filter. The concentration was determined using a standard curve. The determination of protein carbonyl (PC) concentration was based on the method of Levin and associates. Absorbance was read on the ELISA reader using a 375 nm filter.

The test system of data set [3] is MIA PaCa-2 cells. The data set is described as above. Conditions: MIA PaCa-2, 24 h, 100 µM complex 1 or 50 µM complex 2, vs control. In kind it is cell-based, human. The procedure:
as §3

For data set [4], the system named is MMP2. Description: Gelatin gel electrophoresis of supernatants, MMP2 activity, MIA PaCa-2. Type of data set: cell-based, human. To be noted: MIA PaCa-2, 100 µM complex 1 or 50 µM complex 2, 24 and 48 h treatments. Here is the method:
as §1, §2

Data set [5] relates to MMP2. The experiment in a line: Gelatin gel electrophoresis of supernatants, MMP2 activity, MDA-MB-231. Type of data set: cell-based, human. Conditions: MDA-MB-231, 75 µM complex 1 or 50 µM complex 2, 24 and 48 h treatments. Here is the method:
as §1, §2

Data set [6] concerns MDA-MB-231 cells. Description: MTT test. In kind it is cell-based, human. To be noted: MDA-MB-231, 24 h treatment. The procedure: (§4) The human breast cancer cell line (MDA-MB-231) and human pancreatic cancer cell line (MIA PaCa-2) were obtained from the American Type Culture Collection (ATCC). The cells were cultured in 25 cm^2 flasks with DMEM supplemented with 100 U/mL penicillin-streptomycin, 10% FBS, at 37 °C with 5% CO2 in a humidified incubator.
(§5) Cells were harvested when they reached 85–90% confluent. 100 µL of cell suspension (15.000 cells per well) was poured into the wells of the 96-well plate and incubated overnight to allow the cells to attach to the well. The cells were treated with 1 or 2 in concentrations ranging from 0.19 to 200 µM. Untreated cells were used as control. After 24 h, 10 µL MTT (5 mg/mL) was added to each well. Cultures were incubated for […] at 37 °C. The reduction process was stopped by adding 100 µL/well of 10% SDS acidified with 1N HCl. Dissolution of the resulting blue color was continued overnight in the incubator at 37 °C. All treatments were done in replicates of three. The absorbance was read at 540 nm on an ELISA reader (RT-6100, Rayto, Shenzhen, China). The ratio of absorbances of treated to untreated living cells was used to measure viability. Cytotoxic activity was recorded as IC50, which is the concentration necessary to reduce the absorbance of treated cells by 50% compared to the control.
On the technique in general: Tetrazolium dyes change colour on reduction, which living cells bring about.

The test system of data set [7] is MIA PaCa-2 cells. The experiment in a line: MTT test. Type of data set: cell-based, human. To be noted: MIA PaCa-2, 24 h treatment. The procedure:
as §4, §5

By pIC50 is commonly meant the IC50 on a negative log10 scale, so that one unit is a factor of ten. Lower therefore signals a large IC50. As to `Cc1ccc(C(C)C)cc1.Cc1ccc(C(C)C)cc1.Cc1ccc(NN)cc1C.[Cl-].[Cl][Ru].[Cl][Ru][Cl]` [complex 2, Chlorido(μ-chlorido)(η^6-p-cymene)(μ-3,4-dimethylphenylhydrazine-κ^2N,N′)ruthenium(II)-dimer chloride], the MMP9 activity entry in the data set on MMP9 (MDA-MB-231, 50 µM complex 2, 24 and 48 h treatments) is recorded as “did not affect”. The “time-dependent UV-VIS spectra (stability)” value in data set [1] is recorded as “gradual increase in absorbance”. The “MDA concentration in the medium” value in the data set on MDA-MB-231 cells [2] was “increased”; in the data set on MIA PaCa-2 cells [3] it was “significantly reduced”. Moreover, the “PC concentration in the medium” value with MDA-MB-231 cells [2] and in the data set on MIA PaCa-2 cells [3] was “decreased” each time. Also, the MMP2 activity result in the data set on MMP2 [4] and in the data set with MMP2 [5] was “No changes” throughout. Moreover, the pIC50 in the data set with MDA-MB-231 cells [6] and in the data set with MIA PaCa-2 cells [7] was 4.30 in each case.

Consider “Dichlorido(η^6-p-cymene)(3,4-dimethylphenylhydrazine-κN)ruthenium(II) [complex 1]”, for which the MMP9 activity entry with MMP9 (MDA-MB-231, 75 µM complex 1, after 48 h, compared to control and 24 h treatment (p < 0.01)) was “significantly lower”. Also, in data set [1], the “time-dependent UV-VIS spectra (stability)” value is “monoexponential decrease in absorbance due to the hydrolysis”. Further, the “MDA concentration in the medium” value with MDA-MB-231 cells [2] is reported as “reduces”; with MIA PaCa-2 cells [3], “significantly reduced”. For the same compound, the “PC concentration in the medium” value in the data set with MDA-MB-231 cells [2] is on record as “reduces MDA concentration but not PC”; in the data set with MIA PaCa-2 cells [3], “increased”. The MMP2 activity entry in the data set on MMP2 [4] and in the data set with MMP2 [5] was “No changes” in each case. Also, the negative-log IC50 (pIC50) in the data set on MDA-MB-231 cells [6] was 4.12; with MIA PaCa-2 cells [7] it was 4.00.
